Results as given in patent publication US20250360116A1, “PICOLINIC-2-CARBOXAMIDE HYBRIDIZED WITH ANTHRAQUINONE DERIVATIVES, METHODS OF PREPARATION, AND A PHARMACEUTICAL COMPOSITION COMPRISING THE SAME” (AL-ZAYTOONAH UNIVERSITY OF JORDAN, priority 2023, published 2025).
Marks after values point to notes of the source that are not given here.

Tested on: Triton WR-1339 induced hyperlipidemic Wistar Rats
Experiment: Plasma lipid levels in triton WR-1339 induced hyperlipidemia in rats
Type: in vivo
Settings: for HDL-C (plasma) / LDL-C (plasma) / TC (plasma) / TG (plasma): 20 mg/kg intragastric after triton WR-1339 200 mg/Kg i.p., about 6 hours, mean ± SEM, five rats; for Effect on elevated TC levels / Effect on elevated plasma LDL-C levels / Effect on elevated plasma TG levels / Effect on plasma HDL-C levels: in words, in comparison with HCG, 20 mg/kg intragastric, 6 hours
Description: The study was conducted on twenty-five adult male Wistar Rats weighting 200±10 g. Wistar Rats were bred in the animal care center of Faculty of Pharmacy in Al-Zaytoonah University of Jordan. The animals were kept on 12 hours' light/dark cycle, at room temperature (25±1° C.) with free access to food and water. The rats were divided randomly into five groups each consist of five rats, whereby Group I was the normal control group (“NCG”) that received an intraperitoneal administration of normal saline, Group II was the hyperlipidemic control group (“HCG”) that received an intraperitoneal injection of about 200 mg/Kg triton WR-1339 dissolved in about 4% dimethylsulfoxide (“DMSO”)/corn oil, Groups (III, IV, V) rats received intraperitoneal injection of about 200 mg/Kg triton WR-1339.
After about 6 hours of treatment, the rats were anaesthetized with diethyl ether and blood was collected. The blood samples were immediately centrifuged at about 3000 rpm for about 10 minutes and the serum was used for lipid profile measurements (TG, LDL-C, TC and HDL-C) by an automated chemistry analyzer (Model Erba XL-300, Mannheim, Germany). Furthermore, liver samples were collected, and then kept in liquid nitrogen, and stored at (−80° C.) for the mRNA extraction as described in Example 5 below.
The plasma of TG, TC, LDL-C and HDL-C levels in HCG treated at 6 hours after administration of triton WR-1339 are shown in FIG. 2.
After the injection of Wistar Rats with Triton WR-1339 in Example 3, Groups III, IV, V received an intragastric administration of (20 mg/kg by weight) of compounds C1, C2 and C3, respectively, dissolved in about 4% DMSO/corn oil. FIGS. 3, 4, 5, 6 illustrate bar charts showing the effect of the compounds C1, C2, and C3 on the Triton WR-1339 induced hyperlipidemic Wistar Rats after about 6 hours of treatment on TG, TC, LDL-C, and HDL-C.

Structure (SMILES) | HDL-C (plasma) | LDL-C (plasma) | TC (plasma) | TG (plasma) | Effect on elevated TC levels | Effect on elevated plasma LDL-C levels | Effect on elevated plasma TG levels | Effect on plasma HDL-C levels
O=C(Nc1cccc2c1C(=O)c1ccccc1C2=O)c1ccccn1 [Compound C1, N-(9,10-dioxo-9,10-dihydroanthracen-1-yl) picolinamide] | 56 ± 4.6 ^b mg/dl | 6 ± 0.7 ^b mg/dl | 42 ± 10 ^b mg/dl | 145 ± 14.2 ^b mg/dl | significantly decreased | significantly lowered | significantly decreased | significantly increased
O=C(Nc1ccc2c(c1)C(=O)c1ccccc1C2=O)c1ccccn1 [Compound C2, N-(9,10-dioxo-9,10-dihydroanthracen-2-yl) picolinamide] | 38 ± 4.4 ^a mg/dl | 9 ± 0.6 ^a mg/dl | 75 ± 15.2 ^a mg/dl | 985 ± 15.3 ^a mg/dl | significantly decreased | significantly lowered | significantly decreased | significantly increased
O=C(Nc1ccc(O)c2c1C(=O)c1ccccc1C2=O)c1ccccn1 [Compound C3, N-(4-hydroxy-9,10-dioxo-9,10-dihydroanthracen-1-yl) picolinamide] | 22 ± 2 mg/dL | 11 ±1.2 ^ mg/dl | 122 ± 11 mg/dL | 1375 ± 23 mg/dL | non-significant effect | non-significant effect | non-significant effect | non-significant effect
